In patent publication US20220185832A1, “CD73 INHIBITORS” (BioArdis LLC, priority 2019, published 2022):

Tests used:
[1] = target: T1, Recombinant Human 5′-Nucleotidase (CD73) (Homo sapiens, UniProt P21589); experiment: CD73 Enzyme Assay; assay type: biochemical; conditions: 0.5 nM human CD73, 30 μM AMP, PiColorLock phosphate detection, OD 635 nm; read-out: Potency (IC50)
T1 construct: CHO derived CD73 (Trp27-Lys547), with a C-terminal 6-His tag; 6-His (C); purchased R&D 5795-EN; host or cells: CHO
T1 sequence (P21589 27-547): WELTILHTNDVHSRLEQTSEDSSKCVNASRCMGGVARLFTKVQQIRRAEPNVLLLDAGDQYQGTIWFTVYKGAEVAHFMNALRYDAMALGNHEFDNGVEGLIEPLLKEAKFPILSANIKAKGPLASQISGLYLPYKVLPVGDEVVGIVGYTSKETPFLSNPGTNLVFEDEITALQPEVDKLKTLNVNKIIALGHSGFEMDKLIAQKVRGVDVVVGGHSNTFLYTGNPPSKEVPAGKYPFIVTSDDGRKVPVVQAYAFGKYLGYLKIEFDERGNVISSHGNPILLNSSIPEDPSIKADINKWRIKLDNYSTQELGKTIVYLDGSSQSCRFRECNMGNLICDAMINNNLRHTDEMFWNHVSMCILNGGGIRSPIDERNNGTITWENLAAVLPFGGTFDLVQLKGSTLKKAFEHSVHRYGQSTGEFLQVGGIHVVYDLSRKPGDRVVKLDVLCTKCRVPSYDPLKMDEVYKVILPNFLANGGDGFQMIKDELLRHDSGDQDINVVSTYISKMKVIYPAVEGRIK
Text: Soluble recombinant CD73 catalyzes the conversion of adenosine monophosphate (AMP) to adenosine and inorganic phosphate. The phosphate detection reagent, PiColorLock™ (Innova Bioscience, Cat #303-0125) is based on the change in absorbance of the dye malachite green in the presence of inorganic phosphate (Pi) and this property can be exploited to measure any enzyme that generates Pi. Recombinant Human 5′-Nucleotidase (CD73) (R&D #5795-EN, CHO derived CD73 (Trp27-Lys547), with a C-terminal 6-His tag) was used in the enzymatic assay. This assay was run in a 384-well plate format (Corning® NBS™ 384 well plates, Cat #3640). The basic assay procedure involves two steps: 1) Enzyme reaction: The CD73 enzyme (R&D #5795-EN) is incubated in the presence or absence of compounds. AMP (sigma, cat #01930) is added to start the kinase reaction. 2) Detection step: “Gold mix” is added to the assay system, then stabilizers are added. After incubation the absorbance of the solution is read at OD 635 nm. The recorded OD signal is proportional to the enzyme activity.
Briefly, 25 μl human CD73 (0.5 nM final concentration) in the enzymatic buffer solutions (20 mM Tris, 25 mM NaCl, 1 mM MgCl2, pH 7.5, 0.005% Tween-20) were mixed with various concentrations of the test compound (dissolved in 100% DMSO). These solutions were incubated for 15 min at 25° C., and subsequently 25 μl AMP (30 μM final concentration) was added to start the reaction. The final reaction mixture of enzyme-substrate-compound was incubated for 20 min at 37° C. Meanwhile, “Gold mix” was prepared shortly before use by adding 1/100 vol. of accelerator to the PiColorLock™ Gold reagent. 12 μL/well of the “Gold mix” was added to assay plate containing 50 μL enzyme reaction buffer and incubated at 25° C. for 5 min. 5 μL/well stabilizer was added to the assay plate and incubated at 25° C. for 30 min. The absorbance of the well solutions was measured at 635 nm on a Spark 10M instrument (TECAN).
(§1) The percent (%) inhibition at each concentration of a compound was calculated relative to the OD value in the Max and Min control wells contained within each assay plate. The Max control wells contained enzyme and substrate as 0% inhibition, and the Min control wells only contained substrate without enzyme as 100% inhibition. The concentrations and percent inhibition values for a test compound are plotted and the concentration of the compound required to achieve 50% inhibition (IC50) was determined with a four-parameter logistic dose response equation.

[2] = target: T2, Cell surface CD73 of U87 MG human glioblastoma cells (Homo sapiens, UniProt P21589); experiment: CD73 Cellular Assay; assay type: cell-based; conditions: 5000 cells per well, 30 μM AMP, PiColorLock phosphate detection in supernatant, read-out: Potency (IC50)
T2 construct: Cell surface CD73 catalyzes the conversion of adenosine monophosphate (AMP) to adenosine and inorganic phosphate; endogenous in cells; host or cells: U87 MG human glioblastoma cells
T2 sequence (P21589 27-549): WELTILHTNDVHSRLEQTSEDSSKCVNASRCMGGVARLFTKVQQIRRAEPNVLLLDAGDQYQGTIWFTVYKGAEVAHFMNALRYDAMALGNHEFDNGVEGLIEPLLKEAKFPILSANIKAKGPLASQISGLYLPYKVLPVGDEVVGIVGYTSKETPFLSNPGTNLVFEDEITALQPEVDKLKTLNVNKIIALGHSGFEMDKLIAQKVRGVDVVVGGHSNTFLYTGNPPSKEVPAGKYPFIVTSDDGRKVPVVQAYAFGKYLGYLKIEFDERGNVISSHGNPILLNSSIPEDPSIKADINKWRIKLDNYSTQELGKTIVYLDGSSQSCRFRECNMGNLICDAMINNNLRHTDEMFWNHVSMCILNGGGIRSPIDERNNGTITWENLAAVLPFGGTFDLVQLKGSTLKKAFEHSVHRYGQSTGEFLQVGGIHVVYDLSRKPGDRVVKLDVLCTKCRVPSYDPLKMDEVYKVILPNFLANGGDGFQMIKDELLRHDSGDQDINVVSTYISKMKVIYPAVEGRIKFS
Procedure: Cell surface CD73 catalyzes the conversion of adenosine monophosphate (AMP) to adenosine and inorganic phosphate. U87 MG human glioblastoma cells express high level of CD73. Cells are treated with compounds in a 96-well assay plate and supernatants are collected into a 384-well detection plate. The concentration of inorganic phosphate (Pi) in the supernatants is determined using the phosphate detection reagent, PiColorLock™ (Innova Bioscience, Cat #303-0125) following the manufacturer's instructions.
Briefly, on the day of the assay, U87 MG cells were harvested and resuspended in assay buffer which consisted of 20 mM HEPES, pH=7.4, 137 mM NaCl, 5.4 mM KCl, 1.3 mM CaCl2, 4.2 mM NaHCO3 and 0.1% glucose. To test the effect of compounds on cellular CD73 enzymatic activity, 500 nL/well of compounds dissolved in DMSO were added to a 96-well TC-treated microplate (Corning #3599). Next, 80 μL/well of U87 MG cells in assay buffer were added to assay plate. After 30 minutes of incubation in an atmosphere of 5% CO2 at 37° C., 20 μL/well of 150 μM AMP (Adenosine 5′-monophosphate monohydrate, Sigma, Cat #01930) in assay buffer was added to assay plate. Final assay conditions consisted of 5000 cells per well in 0.5% DMSO and 30 μM AMP substrate. After 50 minutes of incubation in an atmosphere of 5% CO2 at 37° C., 50 μL/well of supernatant was transferred to the 384-well detection plate (Corning® NBSTM 384 well plates, Cat #3640). Meanwhile “Gold mix” was prepared shortly before use by adding 1/100 volume of accelerator to the PiColorLock™ Gold reagent. 12 μL/well of the “Gold mix” was added to detection plate containing 50 μL/well of supernatant and incubated at 25° C. for 5 minutes. 5 μL/well stabilizer was added to the detection plate and incubated at 25° C. for 30 minutes. The absorbance at 635 nm was measured on a Spark 10M instrument (TECAN).
as §1, with “cells” for “enzyme”, “cells” for “substrate without enzyme”

IC50 [1] | IC50 [2] | Compound
10 to 99 nM | < 10 nM | O=P(O)(O)CP(=O)(O)OC[C@H]1O[C@@H](c2ccc3c(NCCc4ccccc4)nc(Cl)nc3c2)[C@H](O)[C@@H]1O [Compound 2, (((((2R,3S,4R,5S)-5-(2-chloro-4-(phenethylamino)quinazolin-7-yl)-3,4-dihydroxytetrahydrofuran-2-yl)methoxy)(hydroxy)phosphoryl)methyl)phosphonic acid]
10 to 99 nM | – | O=P(O)(O)CP(=O)(O)OC[C@H]1O[C@@H](c2cnc3c(NC4CCCC4)nc(Cl)nc3c2)[C@H](O)[C@@H]1O [Compound 40, (((((2R,3S,4R,5S)-5-(2-chloro-4-(cyclopentylamino)pyrido[3,2-d]pyrimidin-7-yl)-3,4-dihydroxytetrahydrofuran-2-yl)methoxy)(hydroxy)phosphoryl)methyl)phosphonic acid]
10 to 99 nM | – | CN(c1nc(Cl)nc2cc([C@@H]3O[C@H](COP(=O)(O)CP(=O)(O)O)[C@@H](O)[C@H]3O)cnc12)C1CCCC1 [Compound 41, (((((2R,3S,4R,5S)-5-(2-chloro-4-(cyclopentyl(methyl)amino)pyrido[3,2-d]pyrimidin-7-yl)-3,4-dihydroxytetrahydrofuran-2-yl)methoxy)(hydroxy)phosphoryl)methyl)phosphonic acid]
10 to 99 nM | – | O=P(O)(O)CP(=O)(O)OC[C@H]1O[C@@H](c2ccc3c(NCC4CCC(O)CC4)nc(Cl)nc3c2)[C@H](O)[C@@H]1O (stereo partly drawn) [Compound 42, (((((2R,3S,4R,5S)-5-(2-chloro-4-(((4-hydroxycyclohexyl)methyl)amino)quinazolin-7-yl)-3,4-dihydroxytetrahydrofuran-2-yl)methoxy)(hydroxy)phosphoryl)methyl)phosphonic acid]
10 to 99 nM | – | O=P(O)(O)CP(=O)(O)OC[C@H]1O[C@@H](c2ccc3c(NCc4ccccc4)nc(C4CC4)nc3c2)[C@H](O)[C@@H]1O [Compound 45, (((((2R,3S,4R,5S)-5-(4-(benzylamino)-2-cyclopropylquinazolin-7-yl)-3,4-dihydroxytetrahydrofuran-2-yl)methoxy)(hydroxy)phosphoryl)methyl)phosphonic acid]

Further lines, the compound ahead of its results:

Compound | IC50 [1] | IC50 [2]
O=P(O)(O)CP(=O)(O)OC[C@H]1O[C@@H](c2ccc3c(NCc4ccccc4)nc(Cl)nc3c2)[C@H](O)[C@@H]1O [Compound 1, (((((2R,3S,4R,5S)-5-(4-(benzylamino)-2-chloroquinazolin-7-yl)-3,4-dihydroxytetrahydrofuran-2-yl)methoxy)(hydroxy)phosphoryl)methyl)phosphonic acid] | 10 to 99 nM | < 10 nM
CN(c1nc(Cl)nc2cc([C@@H]3O[C@H](COP(=O)(O)CP(=O)(O)O)[C@@H](O)[C@H]3O)ccc12)C1CCCC1 [Compound 3, (((((2R,3S,4R,5S)-5-(2-chloro-4-(cyclopentyl(methyl)amino)quinazolin-7-yl)-3,4-dihydroxytetrahydrofuran-2-yl)methoxy)(hydroxy)phosphoryl)methyl)phosphonic acid] | 10 to 99 nM | < 10 nM
O=P(O)(O)CP(=O)(O)OC[C@H]1O[C@@H](c2ccc3c(NC4CCCC4)nc(Cl)nc3c2)[C@H](O)[C@@H]1O [Compound 4, (((((2R,3S,4R,5S)-5-(2-chloro-4-(cyclopentylamino)quinazolin-7-yl)-3,4-dihydroxytetrahydrofuran-2-yl)methoxy)(hydroxy)phosphoryl)methyl)phosphonic acid] | < 10 nM | < 10 nM
O=P(O)(O)CP(=O)(O)OC[C@H]1O[C@@H](c2ccc3c(N[C@@H]4CCOC4)nc(Cl)nc3c2)[C@H](O)[C@@H]1O [Compound 38, (((((2R,3S,4R,5S)-5-(2-chloro-4-(((R)-tetrahydrofuran-3-yl)amino)quinazolin-7-yl)-3,4-dihydroxytetrahydrofuran-2-yl)methoxy)(hydroxy)phosphoryl)methyl)phosphonic acid] | 10 to 99 nM | –
O=P(O)(O)CP(=O)(O)OC[C@H]1O[C@@H](c2ccc3c(NC4CCCC4)nc(C4CC4)nc3c2)[C@H](O)[C@@H]1O [Compound 39, (((((2R,3S,4R,5S)-5-(4-(cyclopentylamino)-2-cyclopropylquinazolin-7-yl)-3,4-dihydroxytetrahydrofuran-2-yl)methoxy)(hydroxy)phosphoryl)methyl)phosphonic acid] | 10 to 99 nM | –
O=P(O)(O)CP(=O)(O)OC[C@H]1O[C@@H](c2ccc3c(NCC4CC(O)C4)nc(Cl)nc3c2)[C@H](O)[C@@H]1O (stereo partly drawn) [Compound 44, (((((2R,3S,4R,5S)-5-(2-chloro-4-(((3-hydroxycyclobutyl)methyl)amino)quinazolin-7-yl)-3,4-dihydroxytetrahydrofuran-2-yl)methoxy)(hydroxy)phosphoryl)methyl)phosphonic acid] | 10 to 99 nM | –
